Measured values taken from ChEMBL document CHEMBL1201862, “PubChem BioAssay data set” (2004).
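Method: 48-hour compound exposure of cells in 96-well plates, five concentrations, linear interpolation of endpoints. GI50 is the concentration that inhibits growth by half.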 Calls of active or inactive are those of the source. Cut-off read from the data, not from the text of the source: active = GI50 up to about 1.1 µM and inactive = higher.

Tests used:
Test in all cases: growth of human tumour cells (NCI), 48 h
XF498 = test system: XF498
SF-268 = test system: SF-268
SNB-19 = test system: SNB-19
A498 = test system: A498
Malme-3M = test system: Malme-3M
SNB-75 = test system: SNB-75
M19-MEL = test system: M19-MEL
EKVX = test system: EKVX
RPMI-8226 = test system: RPMI-8226
UO-31 = test system: UO-31
MOLT-4 = test system: MOLT-4
OVCAR-8 = test system: OVCAR-8
HCT-116 = test system: HCT-116
OVCAR-5 = test system: OVCAR-5
NCI-H23 = test system: NCI-H23
SK-MEL-5 = test system: SK-MEL-5
OVCAR-3 = test system: OVCAR-3
SK-MEL-28 = test system: SK-MEL-28
U-251 = test system: U-251
SR = test system: SR

Measured: GI50

COc1ccc(C2CC(c3sc(Nc4ccc(C)cc4)nc3C)=NN2)cc1 (stereo unspecified)
inactive: XF498 21 µM | SF-268 15.8 µM | SNB-19 15.7 µM | A498 15.4 µM | Malme-3M > 10 µM | SNB-75 14.8 µM | M19-MEL > 44.1 µM | EKVX 20.5 µM | RPMI-8226 12.4 µM | UO-31 14.2 µM | MOLT-4 8.34 µM | OVCAR-8 15.5 µM | HCT-116 6.46 µM | OVCAR-5 22.4 µM | NCI-H23 15.5 µM | SK-MEL-5 16 µM | OVCAR-3 15.8 µM | SK-MEL-28 16.8 µM | U-251 14.8 µM

O=NN(CCCl)C(=O)N[C@H]1CC[C@H](C(=O)O)CC1
inactive: XF498 > 100 µM | SF-268 29.7 µM | SNB-19 > 61.1 µM | A498 > 100 µM | Malme-3M 94.8 µM | SNB-75 > 80.2 µM | M19-MEL > 100 µM | EKVX > 100 µM | RPMI-8226 > 66.8 µM | UO-31 > 100 µM | MOLT-4 5.32 µM | OVCAR-8 > 100 µM | HCT-116 > 100 µM | OVCAR-5 > 100 µM | NCI-H23 > 100 µM | SK-MEL-5 > 31.6 µM | OVCAR-3 > 100 µM | SK-MEL-28 > 100 µM | U-251 35.8 µM

COC(=O)C(=O)C(C(C)=O)C(=O)C(=O)Nc1ccc(C)cc1C (stereo unspecified)
inactive: XF498 > 100 µM | SF-268 > 100 µM | SNB-19 > 100 µM | A498 > 100 µM | SNB-75 > 100 µM | M19-MEL > 100 µM | SR > 100 µM | EKVX > 100 µM | RPMI-8226 > 100 µM | UO-31 > 100 µM | MOLT-4 > 100 µM | OVCAR-8 > 100 µM | HCT-116 > 100 µM | OVCAR-5 > 100 µM | NCI-H23 > 100 µM | SK-MEL-5 > 100 µM | SK-MEL-28 > 100 µM | U-251 > 100 µM

NC(=S)N/N=C1\CC(c2ccccc2)Nc2ccccc21 (stereo unspecified)
inactive: XF498 6.76 µM | SF-268 40.1 µM | SNB-19 40.8 µM | A498 18.5 µM | Malme-3M 27.6 µM | SNB-75 16.6 µM | M19-MEL 39.4 µM | EKVX 55.7 µM | RPMI-8226 27.1 µM | UO-31 24.5 µM | MOLT-4 22.6 µM | OVCAR-8 41.6 µM | NCI-H23 30.2 µM | SK-MEL-5 19.5 µM | OVCAR-3 40.3 µM | SK-MEL-28 40.1 µM | U-251 39.6 µM

C=C1C(=O)C[C@@]23CCC[C@@]12CC(OCOC)C3 (stereo partly specified)
inactive: XF498 3.12 µM | SF-268 4.56 µM | SNB-19 14.6 µM | A498 4.69 µM | Malme-3M 2.84 µM | SNB-75 2.1 µM | M19-MEL 3.59 µM | EKVX 6.46 µM | RPMI-8226 2.55 µM | UO-31 5.46 µM | MOLT-4 2.5 µM | OVCAR-8 3.09 µM | HCT-116 2.18 µM | OVCAR-5 3.61 µM | NCI-H23 3.43 µM | SK-MEL-5 3.33 µM | OVCAR-3 2.72 µM | SK-MEL-28 2.69 µM | U-251 8.47 µM

NC(=O)c1ncn2c1NC(=O)CC2
inactive: XF498 > 100 µM | SF-268 > 100 µM | SNB-19 > 100 µM | A498 > 100 µM | Malme-3M > 100 µM | SNB-75 > 100 µM | M19-MEL > 100 µM | EKVX > 100 µM | RPMI-8226 > 100 µM | UO-31 > 100 µM | MOLT-4 > 100 µM | OVCAR-8 > 100 µM | HCT-116 > 100 µM | OVCAR-5 > 100 µM | NCI-H23 > 100 µM | SK-MEL-5 > 100 µM | OVCAR-3 > 100 µM | SK-MEL-28 > 100 µM | U-251 > 100 µM
